The record followed here is paper PMC6744936, “Genome-wide identification, characterization and expression pattern analysis of APYRASE family members in response to abiotic and biotic stresses in wheat” (PeerJ, 2019).

For the assay, the system named is T1, TaAPY3-1.
T1 construct: pET22a, E. coli BL21; genome set A copy
Description: phosphate release (Phosphate Assay Kit). Format: biochemical, Triticum aestivum. The settings on record: 37 °C, pH 5.5, 8 mM Ca2+.

As for `Nc1ncnc2c1ncn2[C@@H]1O[C@H](COP(=O)(O)OP(=O)(O)OP(=O)(O)O)[C@@H](O)[C@H]1O` [ATP], the Michaelis-Menten constant (Km) turned out to be 8.7 mM.

Broadly, the Km is the concentration of substrate that gives half-maximal velocity.
